Columns and labels:
[1] = system: rat ventral mesencephalic dopaminergic neurons; experiment: Protection of primary dopaminergic neurons from 6-OHDA (THir neuron staining); format: cell-based; settings: 6.25 uM 6-OHDA 40 min, FIG. 7
Method: Dissociated embryonic D14 rat ventral mesencephalic cells were used.
Dopaminergic neurons play a key role in the pathogenesis of Parkinson's disease and compounds enhancing survival of these cells have significant therapeutic potential. Dissociated embryonic D14 rat ventral mesencephalic cells were used to test the potential of EPO mimetic compounds to protect primary dopaminergic neurons. […] The cells were plated in 48-well poly-D-lysine coated plates using a microisland technique. The microislands were seeded into dry plates in 10 uL aliquots of 3000 cells/uL and incubated at 37° C. for 1 h to allow for adhesion. […] On day 3, the medium was replaced with 6.25 uM 6-hydroxydopamine (6-OHDA, Sigma) for a 40 minute incubation. The toxin was then removed and the cells were cultured for an additional 2 days. On day 5, the cells were fixed, permeabilized and stained for tyrosine hydroxylase-immunoreactive (THir) neurons.

[2] = system: PC12 cells; experiment: PC12 cell survival under serum deprivation (CellTiter-Glo); format: cell-based, rat; settings: 72 h serum-free; for minimal effective concentration: Rattus norvegicus, PC-12, read-out: PC12 cell proliferation (CellTiter-Glo ®) Concentration at which RLU increased >25% compared to medium control
Method: Each culture condition was performed in quadruplicate in each experiment and the mean values were calculated. The results represent mean±SEM of relative light unit values when compared to the mean values obtained in the presence of the medium alone. A total of 13 experiments were performed and the statistical significance was analyzed using GraphPad Prism software using ANOVA, followed by paired t-test. The symbol * indicates P-values <0.01.
PC12 cells were cultured in DMEM supplemented with 10% fetal calf serum and 5% horse serum. […] Cell viability was analyzed by CellTiter-Glo® reagent (Promega).
PC12 cells were cultured in DMEM supplemented with 10% fetal calf serum and 5% horse serum. […] Cell survival of the serum-starved cells was analyzed by CellTiter-Glo® reagent luminescence reading.
FIG. 2 illustrates neuroprotective effects of Compounds 1-5 when tested in PC12 cell protection assays. PC12 cells were subjected to serum deprivation as described under FIG. 1.
PC12 cells were cultured in DMEM supplemented with 10% fetal calf serum and 5% horse serum. […] Cell survival of the serum-starved cells was analyzed by CellTiter-Glo® reagent luminescence reading (relative light units, “RLU”). […] “NS” indicates RLU increased <25% when compounds were tested at 5 uM.

[3] = system: human CD34+ hematopoietic stem cells; experiment: Proliferation and differentiation of primary human CD34+ cells; format: cell-based
Method: Compound 10 was tested at different concentrations for its ability to induce proliferation and differentiation of human CD34+ hematopoietic stem cells. Human CD34+ cells were purified by (FIG. 6A) immunomagnetic beads (>90% purity, purchased from Stem Cell Technologies) or (FIG. 6B) cell sorting (at Blood Systems Research Institute) and the cells were cultured in the presence of compounds for eight (FIG. 6A) or eleven (FIG. 6B) days. (FIG. 6A) The level of cell growth and survival was measured based on ATP levels (CellTiterGlo reagent), or (FIG. 6B) the expression level of CD235a was analyzed by flow cytometry as a marker for cell maturation. Cell survival was analyzed using the CellTiterGlo reagent to measure ATP levels as a marker of metabolically active cells that have not undergone apoptosis, and expression of CD235a as a marker of erythroid cell differentiation and as a specific marker for EPO-like erythropoietic activity.

[4] = system: EPO receptor; experiment: EPO receptor phosphorylation in erythroleukemia cell line TF-1 (phospho-EPOR ELISA); format: cell-based, human; settings: TF-1, 10 min, FIG. 5B
Method: (§1) Primary micro-dissected fetal brain tissue was obtained from a commercial source (Advanced Bioscience Resources, Inc., Alameda, Calif.). Cultured primary human fetal neural cells (3 h, 1 day, 17 days, or 26 days in culture) were incubated with Compound 5, Compound 6, or controls for 10 min (FIG. 5A). Phospho-EPOR was detected by ELISA (R&D Systems). […] Human erythropoietic cell line TF-1 was cultured for 10 min in the presence of Compound 5, Compound 6, or the controls, and phospho-EPOR was detected by ELISA (R&D Systems). The data represent mean±SEM of triplicate cultures. […] The receptor activation results were consistent with functional cell based assays using primary human CD34+ bone marrow progenitor cells and erythroleukemia cell line TF-1.

[5] = system: TF-1 cells; experiment: Proliferation of TF-1 cells; format: cell-based, human; settings: at concentrations that provided significant neuroprotective effects
[6] = system: frataxin; experiment: Frataxin protein levels in primary human fetal neurons (ELISA); format: cell-based; settings: 28 days in culture, 24 h incubation, FIG. 4B
Method: The effects of the compounds on frataxin protein levels in cells were analyzed. […] Embryonic mouse cell line P19 was differentiated into neuronal cells in the presence of retinoic acid and frataxin levels were measured (FIG. 4A). Frataxin levels were measured after 24 h by multi-species frataxin-ELISA (MitoSciences) and compared to total protein levels. The data represent mean±SEM. Primary human fetal neurons (28 days in culture) were also incubated for 24 h in the presence of the compounds, and human frataxin levels were measured by ELISA (MitoSciences) and compared to total protein levels (FIG. 4B). The data represent mean±SEM of triplicate measurements. Compounds were also tested for their effects on frataxin levels in cells derived from patients with FRDA. Cultures of patient peripheral blood mononuclear cells (PBMCs) were also used to test the EPO mimetic compounds for frataxin enhancement in frataxin-deficient cells. Compound 1 and Compounds 5-6 enhanced frataxin levels in these patient cells at concentration 1 uM or lower.

[7] = system: primary human neurons; experiment: Neuroprotection of primary human neurons against staurosporine; format: cell-based; settings: 47 days in culture, compound 24 h, then staurosporine 500 nM 24 h, FIG. 3B
Method: A) Primary rat cortical neurons were isolated from micro-surgically dissected regions of day 18 embryonic rat brain (Brain Bits, LLC, Springfield, Ill.) and cultured for 12 days in vitro. Then, Compounds 5-7 were added for 24 h. Next, NMDA (50 uM) was added and the cells were cultured for an additional 24 hours. Cells cultured without the insult were considered to represent 0% neuron death. The data represent mean±SEM of six replicate cultures and * indicates P value ≦0.05. B) Primary micro-dissected fetal brain tissue was obtained from a commercial source (Advanced Bioscience Resources, Inc., Alameda, Calif.). […] Staurosporine (500 nM) was added and the cells were cultured for an additional 24 hours. Cells cultured without the insult were considered to represent 0% neuron death. The data represent mean±SEM of six replicate cultures and * indicates P value ≦0.05.

[8] = molecular target: T1, EPO receptor (Homo sapiens, UniProt P19235); experiment: EPO receptor phosphorylation in primary human fetal neural cells (phospho-EPOR ELISA); format: cell-based; settings: FIG. 5A; for EPO receptor phosphorylation: 10 min incubation; for level of receptor activation compared with recombinant human EPO: recombinant human EPO 10 IU/ml
T1 construct: endogenous in cells; host or cells: primary human fetal neural cells cultured from micro-dissected fetal brain tissue (Advanced Bioscience Resources, Inc.)
T1 sequence (P19235 25-508): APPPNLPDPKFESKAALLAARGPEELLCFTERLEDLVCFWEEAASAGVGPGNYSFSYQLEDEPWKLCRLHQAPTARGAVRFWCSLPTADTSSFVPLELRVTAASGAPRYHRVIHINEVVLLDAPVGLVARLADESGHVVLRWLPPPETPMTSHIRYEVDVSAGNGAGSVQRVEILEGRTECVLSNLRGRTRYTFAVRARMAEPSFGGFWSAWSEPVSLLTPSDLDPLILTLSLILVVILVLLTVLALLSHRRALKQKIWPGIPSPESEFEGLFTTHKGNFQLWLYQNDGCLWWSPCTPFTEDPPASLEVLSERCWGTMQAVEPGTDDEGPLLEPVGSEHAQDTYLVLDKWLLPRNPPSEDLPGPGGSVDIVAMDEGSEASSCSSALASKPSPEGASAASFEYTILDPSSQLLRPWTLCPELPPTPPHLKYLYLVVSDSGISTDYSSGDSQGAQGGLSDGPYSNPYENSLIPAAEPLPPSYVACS
Method: as §1

[9] = system: rats; experiment: Kidney and CNS protection against DMA + Cremophor EL toxicity in rats; format: in vivo, rat; settings: DMA + CrEL 2.5 mL/kg each IP
Method: High-dose N,N-dimethylacetamide (DMA)+Cremophor EL (CrEL) (2.5 mL/kg each, IP) was used to induce acute CNS and organ toxicity, and the potential of Compound 5 to protect the rats was studied.

[10] = system: rats; settings: rat model of MCA occlusion (Brines et al. 2000); cited from earlier work
[11] = human, intravenous administration (Xenocostas et al. 2005); cited from earlier work
[12] = system: frataxin; settings: patients with chronic kidney disease, rhEPO infusion for anemia (Sturm et al. 2005); cited from earlier work
[13] = system: frataxin; settings: 8 FRDA patients, open label pilot trial (Boesch et al. 2008); cited from earlier work
[14] = NS = RLU increased <25% at 5 uM

Row | Compound | minimal effective concentration [2, 14] | EPO receptor activation (phospho-EPOR) [4] | proliferation of TF-1 cells [5] | frataxin protein levels [6] | neuroprotective effect (neuron death) [7] | EPO receptor phosphorylation [8] | level of receptor activation compared with recombinant human EPO [8] | further results
1 | Cc1cc(C)n2nc(SCCOc3ccc(Cl)cc3)nc2n1 [Example 1, 2-{[2-(4-chlorophenoxy)ethyl]sulfanyl}-5,7-dimethyl-[1,2,4]triazolo[1,5-a]pyrimidine] | < 5 µM | – | – | – | – | – | – | protection of dopaminergic neurons from 6-OHDA toxicity ([1]; 1 uM): significantly protected; protection of PC12 cells (cell viability) ([2]; 1 uM, FIG. 1, at least comparable to rhEPO): significant effect; level of protection of PC12 cells compared with rhEPO ([2]; 5 uM vs rhEPO 10 U/ml, FIG. 1): higher level of protection than rhEPO
2 | COc1ccc(NC(=O)CSc2nc3nc(C)cc(C)n3n2)cc1 [Example 10, 2-({5,7-dimethyl-[1,2,4]triazolo[1,5-a]pyrimidin-2-yl}sulfanyl)-N-(4-methoxyphenyl)acetamide] | – | – | – | – | – | – | – | CD34+ progenitor cell proliferation (ATP levels, CellTiterGlo) ([3]; eight days culture, FIG. 6A): dose-dependent induction of CD34+ progenitor cell proliferation; differentiation into erythroid cells (CD235a expression, flow cytometry) ([3]; eleven days culture, FIG. 6B): differentiation into erythroid cells expressing CD235a; PC12 cell proliferation (CellTiter-Glo ®) Concentration at which RLU increased >25% compared to medium control [2, 14]: NS (RLU increased <25% when compounds were tested at 5 uM)
3 | Cc1cc(C)n2nc(OCCOc3ccc(Cl)cc3)nc2n1 [Example 11, 2-[2-(4-chlorophenoxy)ethoxy]-5,7-dimethyl-[1,2,4]triazolo[1,5-a]pyrimidine] | < 5 µM | did not activate EPO receptor | did not induce proliferation | increased frataxin protein levels | Significant protective effects | increased EPO receptor phosphorylation in a dose-dependent manner | comparable to that induced by recombinant human EPO | CNS toxicity of DMA/CrEL [9]: prevented the CNS toxicity; response of the rats to formalin injection [9]: normalized the response; kidney-protective effects measured by hypoproteinemia in serum ([9]; FIG. 8): Kidney-protective effects
4 | Cc1cc(C)n2nc(OCCN(CCO)c3ccccc3)nc2n1 [Example 13, 2-{[2-({5,7-Dimethyl-[1,2,4]triazolo[1,5-a]pyrimidin-2-yl}oxy)ethyl](phenyl)amino}ethan-1-ol] | < 5 µM | did not activate EPO receptor | did not induce proliferation | increased frataxin protein levels | Significant protective effects | increased EPO receptor phosphorylation in a dose-dependent manner | comparable to that induced by recombinant human EPO | –
5 | rhEPO: recombinant human (rh)EPO, erythropoietin; positive control | – | effective | – | – | – | – | – | protection of dopaminergic neurons from 6-OHDA toxicity ([1]; 10 IU/ml): significantly protected; reduction of infarct volume [10]: 50-75%; concentration in cerebrospinal fluid lower than in circulation [11]: more than 1000 fold; increase in frataxin levels in peripheral blood mononuclear cells [12]: 2-3 fold; increase in frataxin in lymphocytes [13]: 24%

— patent US9163027B2, “Substituted triazolo-pyrimidine compounds for modulating cell proliferation differentiation and survival” (STATegics, Inc., priority 2012, dated 2015)
